What all share (format): in vivo, mouse
One data set relates to myeloperoxidase (MPO). Nature of the data set: Colitis animal model: myeloperoxidase activity in colon tissue. Particulars: TNBS colitis mice, oral once daily for 3 days, lactic acid bacteria 1×10^9 CFU, sulfasalazine 50 mg/kg. The procedure:
6 C57BL/6 mice (male, 21 to 23 g, 6 weeks old) formed one group which was adapted to a test room for 1 week. One group was used as a normal group, and the other group was treated with 2,4,6-trinitrobenzenesulfonic acid (TNBS) to induce colitis. Specifically, after test animals were anesthetized with ether, 0.1 ml of TNBS solution mixed with 50% ethanol was injected into the large intestine through the anus using a 1 ml syringe with a round tip, and the test animals were raised up vertically for 30 seconds to cause inflammation. Meanwhile, 0.1 ml of physiological saline was orally administered to the normal group. […] The next day when the lactic acid bacteria administration was finished, the test animal was sacrificed, and a portion of the colon from a cecum to a site immediately before the anus was removed and then a length thereof was measured. […]
200 μl of 10 mM potassium phosphate buffer (pH 7.0) containing 0.5% hexadecyl trimethyl ammonium bromide was added to 100 mg of colon tissue, and was homogenized. […] 50 μl of the supernatant was added to 0.95 ml of a reaction solution (containing 1.6 mM tetramethyl benzidine and 0.1 mM H2O2) and the absorbance was measured over time at 650 nm while reacting at 37° C. The activity of myeloperoxidase (MPO) was calculated while 1 μmol/ml of H2O2 generated as a reactant was defined as one unit.

A further data set deals with colitis animal model. Nature of the data set: TNBS colitis animal model: weight change, colon length, toxicity. Particulars: TNBS colitis mice; oral once daily for 3 days; lactic acid bacteria 1×10^9 CFU, sulfasalazine 50 mg/kg.
Another data set has as its system TNF-α. The data set can be described thus: Colitis animal model: TNF-α in colon. As to conditions: colon tissue, TNBS colitis mice; oral once daily for 3 days; lactic acid bacteria 1×10^9 CFU. The procedure: (§1) 6 C57BL/6 mice (male, 21 to 23 g, 6 weeks old) formed one group which was adapted to a test room for 1 week. One group was used as a normal group, and the other group was treated with 2,4,6-trinitrobenzenesulfonic acid (TNBS) to induce colitis. Specifically, after test animals were anesthetized with ether, 0.1 ml of TNBS solution mixed with 50% ethanol was injected into the large intestine through the anus using a 1 ml syringe with a round tip, and the test animals were raised up vertically for 30 seconds to cause inflammation. Meanwhile, 0.1 ml of physiological saline was orally administered to the normal group. After the administration, the novel lactic acid bacterium Lactobacillus mucosae NK41, Bifidobacterium longum NK46 or a 1:1 mixture thereof was suspended in physiological saline which in turn was orally administered thereto in an amount of 1×10^9 CFU once daily for 3 days from a next day. The next day when the lactic acid bacteria administration was finished, the test animal was sacrificed, and a portion of the colon from a cecum to a site immediately before the anus was removed and then a length thereof was measured. […]
(§2) Western blotting methods were used to measure inflammatory response indicator materials, such as p-p65, p65, COX-2 and IL-17. […] Further, the expression level of cytokines thereof was measured using an ELISA kit.

The test system of a further data set is IL-17. The data set can be described thus: Colitis animal model: IL-17 in colon. As to conditions: colon tissue, TNBS colitis mice; oral once daily for 3 days; lactic acid bacteria 1×10^9 CFU, sulfasalazine 50 mg/kg. The procedure: as §1, §2
The subject of a further data set is COX-2. The data set can be described thus: Colitis animal model: COX-2 in colon. As to conditions: colon tissue, TNBS colitis mice; oral once daily for 3 days; lactic acid bacteria 1×10^9 CFU, sulfasalazine 50 mg/kg. The procedure:
as §1, §2

`O=C(O)c1cc(/N=N/c2ccc(S(=O)(=O)Nc3ccccn3)cc2)ccc1O` [Positive group, sulfasalazine] displayed an MPO activity with myeloperoxidase (MPO) of 0.98 μU/mg. In the data set with colitis animal model, this compound gave a Colon length of 4.7 cm and a Weight change of -0.54 g. Also, the TNF-α with TNF-α came to 75 pg/mg. In the data set with IL-17, the IL-17 turned out to be 41 pg/mg. In the data set on COX-2, this compound came in with a COX-2 activity of 0.41.

These data come from patent publication US11324786B2, “Lactic acid bacteria and use thereof” (priority 2017, dated 2022).
